Source: patent US6930114B2, “Pyrrolo (2.1a)dihydroisoquinolines and their use as phosphodiesterase 10a inhibitors” (Bayer Pharmaceuticals Corporation, priority 2000, dated 2005)
Where two headings read alike, the source gives them in different places.

Legend:
[1] = tested on: MDA-MB-231 human breast carcinoma cells; experiment: In vitro proliferation inhibition assay (LDH activity, 72 hours); assay type: cell-based; conditions: MDA-MB-231 cells, read-out: % inhibition at a concentration of 10 μM
Experimental: MDA-MB-231 human breast carcinoma cells (ATCC # HTB26) were cultured in standard growth medium (DMEM), supplemented with 10% heat-inactivated FBS, 10 mM HEPES, 2 mM glutamine, 100 U/mL penicillin, and 100 μg/mL streptomycin) at 37° C. in 5% CO2 (vol/vol) in a humidified incubator. Cells were plated at a density of 3000 cells per well in 100 μL growth medium in a 96 well culture dish. 24 hours after plating, LDH activity was determined using the Cytotox 96 Non-radioactive Cytotoxicity Kit (Promega, Madison, Wis., U.S.A.) to yield T0h LDH values. Briefly, cells were lysed with the addition of 200 μL of Lysis Buffer (included in the Promega Kit) and lysates were further diluted 1:50 in Lysis Buffer. 50 μL of diluted cell lysate were transferred to a fresh 96 well culture plate. The assay was initiated with the addition of 50 μL of substrate per well. Color development was allowed to proceed for 10-15 minutes. The assay was terminated with the addition of 50 μL of Stop Solution (included in Promega kit). Optical densities were determined spectrophotometrically at 490 nm in a 96 well plate reader (SpectraMax 250, Molecular Devices, Sunnyvale, Calif., U.S.A.).
Test compounds were dissolved in 100% DMSO to prepare 10 mM stocks. Stocks were further diluted 1:250 in growth medium to yield working stocks of 40 μM test compound in 0.4% DMSO. Test compounds were serially diluted in growth medium containing 0.4% DMSO to maintain constant DMSO concentrations for all wells. 50 μL of fresh growth medium and 50 μL of diluted test compound were added to each culture well to give a final volume of 200 μL. The cells with and without individual test compounds were incubated for 72 hours at which time LDH activity was measured to yield T72h values. Optionally, the IC50 values can be determined with a least squares analysis program using compound concentration versus percent inhibition. % Inhibition=[1−(T72h test−T0h)/(T72h ctrl−T0h)]×100 wherein • T72h test=LDH activity at 72 hours in the presence of test compound, • T72h ctrl=LDH activity at 72 hours in the absence of test compound and • T0h=LDH activity at Time Zero

PDE 10a = target: T1, PDE 10a (Homo sapiens, UniProt Q9Y233); experiment: In vitro enzyme inhibition assay (3H-cAMP scintillation proximity assay); assay type: biochemical; conditions: full-length recombinant PDE 10a, Sf9 cell lysate
T1 construct: Full-length recombinant PDE 10a was expressed in Sf9 insect cells; made in house; host or cells: Sf9 insect cells (Bac-to-Bac baculovirus system); crude lysate supernatant used
Experimental: Full-length recombinant PDE 10a was expressed in Sf9 insect cells (Invitrogen, Carlsbad, Calif., U.S.A.) using the Bac-to-Bac™ Baculovirus Expression System (Life Technologies, Gaithersburg, Md., U.S.A.). 48 hours post infection, cells were harvested and resuspended in 20 mL (per 1 L culture) Lysis Buffer (50 mM Tris-HCl, pH 7.4, 50 mM NaCl, 1 mM MgCl2, 1.5 mM EDTA, 10% glycerol plus 20 μL Protease Inhibitor Cocktail Set III [CalBiochem, La Jolla, Calif., U.S.A.]). Cells were sonicated at 4° C. for 1 minute and centrifuged at 10,000 RPM for 30 minutes at 4° C. Supernatant was removed and stored at −20° C. for activity assays.
The test compounds were serially diluted in DMSO using two-fold dilutions to stock concentrations ranging typically from 200 μM to 1.6 μM (final concentrations in the assay range from 4 μM to 0.032 μM). 96-well assay isoplates (Wallac Inc., Atlanta, Ga., U.S.A.) were loaded with 50 μL dilution buffer per well (dilution buffer: 50 mM Tris/HCl pH 7.5, 8.3 mM MgCl2, 1.7 mM EDTA, 0.2% BSA). 2 μL of the serially diluted individual test compounds were added to individual wells,m followed by 25 μL of a 1:25,000 dilution of crude recombinant PDE 10a-containing Sf9 cell lysate (diluted in dilution buffer described above). The enzymatic assay was initiated by addition of 25 μL (0.025 μCi) ^3H cyclic AMP tracer [5′,8-^3H] adenosine 3′,5′-cyclic phosphate (Amersham Pharmacia Biotech., Piscataway, N.J., U.S.A.) that was diluted 1:1000 in assay buffer (assay buffer: 50 mM Tris/HCl pH 7.5, 8.3 mM MgCl2, 1.7 mM EDTA). Reactions were incubated at room temperature for 60 minutes and terminated by addition of 25 μL of 18 mg/mL Yttrium Scintillation Proximity Beads (Amersham Pharmacia Biotech., Piscataway, N.J., U.S.A.). Plates were sealed and incubated at room temperature for 60 minutes. Plates were read for 30 seconds/well using a Microbeta counter (Wallac Inc., Atlanta, Ga., U.S.A.). The IC50 values were determined by plotting compound concentration versus percent inhibition.

T1 sequence (Q9Y233 1-779 isoform Q9Y233-1): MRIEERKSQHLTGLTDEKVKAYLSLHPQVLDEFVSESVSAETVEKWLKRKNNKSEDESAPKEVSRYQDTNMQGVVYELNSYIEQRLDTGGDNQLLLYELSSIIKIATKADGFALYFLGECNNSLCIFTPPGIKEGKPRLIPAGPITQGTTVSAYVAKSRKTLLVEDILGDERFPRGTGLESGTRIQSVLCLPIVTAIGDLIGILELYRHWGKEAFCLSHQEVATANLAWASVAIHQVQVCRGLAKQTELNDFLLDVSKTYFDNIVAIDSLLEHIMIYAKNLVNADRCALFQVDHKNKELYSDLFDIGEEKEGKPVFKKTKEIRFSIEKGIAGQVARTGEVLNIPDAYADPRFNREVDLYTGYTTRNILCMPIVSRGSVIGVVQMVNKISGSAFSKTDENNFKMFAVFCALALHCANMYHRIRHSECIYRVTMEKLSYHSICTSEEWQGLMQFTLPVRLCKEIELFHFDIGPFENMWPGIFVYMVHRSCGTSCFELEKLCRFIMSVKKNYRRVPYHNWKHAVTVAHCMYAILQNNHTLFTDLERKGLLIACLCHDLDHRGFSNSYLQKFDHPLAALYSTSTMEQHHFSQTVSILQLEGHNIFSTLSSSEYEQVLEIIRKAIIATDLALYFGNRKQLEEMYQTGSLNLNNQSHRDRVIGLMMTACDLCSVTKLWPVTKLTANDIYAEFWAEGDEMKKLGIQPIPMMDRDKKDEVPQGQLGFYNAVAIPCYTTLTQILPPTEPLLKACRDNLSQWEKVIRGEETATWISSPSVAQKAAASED

SMILES | inhibition at 10 µM ([1]; Examples of part a (Table 2a)) | IC50 (PDE 10a; Examples of part a (Table 1a)) | inhibition at 10 µM ([1]; Examples of part b (Table 2b)) | IC50 (PDE 10a; Examples of part b (Table 1b))
CCOC(=O)c1c(-c2cccc(N)c2)c(C)n2c1-c1cc(OC)c(OC)cc1CC2 [(part a) 28] | 93% | 110 nM | – | –
CCOC(=O)c1c(-c2cc(O)cc(O)c2)c(C)n2c1-c1cc(OC)c(OC)cc1CC2 [(part b) 1] | – | – | 89% | 110 nM
CCOC(=O)c1c(-c2cc(C)c(O)c(C)c2)c(C)n2c1-c1cc(OC)c(OC)cc1CC2 [(part a) 1] | 93% | 30 nM | – | –
CCOC(=O)c1c(-c2cccc(N(C)C)c2)c(C)n2c1-c1cc(OC)c(OC)cc1CC2 [(part a) 10] | 93% | 42 nM | – | –
